A short description of data set [1]: Henry's law constant from gas tracer tests in sand column wetted with distilled water. Format: physicochemical. The conditions noted are these: distilled water at 22.5-24.1° C., six trials, ± 95% confidence interval. From the text: The experimental procedure used to determine KH was similar to that reported in an earlier study (Deeds, N. E.; McKinney, D. C.; Pope, G. A.; Whitely Jr., G. A. Difluoromethane as partitioning tracer to estimate vadose water saturations. Journal of Environmental Engineering 1999, 125, 630-633). A jacketed glass column 60-cm long and 5-cm in diameter (Ace Glass, Inc., Vineland, N.J.) was packed with 50/70 silica sand (d50=0.26 mm, uniformity index=1.186; U.S. Silica, Ill.) underwater using distilled water. The column was positioned vertically, and suction was applied to the bottom of the column to drain water from the porous medium. […]
A water bath and pump were used to recirculate water in the glass jacket surrounding the porous medium to maintain fluid and gas temperatures between 22.5-24.1° C. during the experiments. […] Tracer concentrations in the gas samples were quantified with a gas chromatograph (Model 8610C, SRI Instruments, Torrance, Calif.): tracers were separated using mol-sieve and silica gel packed columns and then detected with a thermal conductivity (helium) or flame ionization detector (difluoromethane). […]
The Henry's law constant was determined in each of the above tests using the tracer breakthrough curves and the known porosity and water saturation for the porous medium. […]

For data set [2] the following is noted: measured at 25° C. (Worksafe Australia); cited from earlier work.
Data set [3] can be described thus: Henry's law constant in batch systems from 4° C. to 50° C. Format: physicochemical. The protocol:
Difluoromethane was selected as the partitioning tracer, which partitions into water within the solid waste, while helium was selected as the conservative tracer. A key thermodynamic parameter necessary for interpretation of data from a PGTT is the Henry's law constant of the partitioning tracer. Laboratory tests were conducted in batch systems to determine the Henry's law constant for difluoromethane from 4° C. to 50° C., which covers the temperature range observed in our field tests. In addition, batch experiments were also conducted with filter paper wetted to different degrees to assess the ability of PGTT to measure water in small pores and sorbed to solid surfaces.

A short description of data set [4]: Henry's law constant from gas tracer tests in sand column wetted with landfill leachate. Format: physicochemical. Here is the method:
Three trials were performed to determine KH for the leachate. The experimental procedures were modified slightly from those described above for distilled water. Here, the column was packed with dry sand, purged with nitrogen, and the leachate was flushed upward in the vertically-mounted column to displace the gas. Nitrogen was then injected into the top of the column to force the mobile water out of the column. This procedure allowed the column to be wetted with the leachate while under anaerobic conditions. Between experimental trials anaerobic conditions were maintained in the column to minimize reactions within the leachate that might alter its composition. The temperatures for the leachate tests ranged between 25.5-26.0° C.
The Henry's law constant was determined in each of the above tests using the tracer breakthrough curves and the known porosity and water saturation for the porous medium. Time moment analysis was used to determine the mean tracer velocities; Rf was computed from eq. 1; and using known n and Sw, KH was computed from eq. 3.
Three PGTT were conducted with landfill leachate to explore the influence of leachate composition on difluoromethane partitioning. The porosity and leachate saturation of the sand column were n=0.41 and Sw=0.17 respectively, while the average interstitial gas velocity used in the tracer tests was 25.2 m/day. […]

For data set [5] the following is noted: clean water, Deeds et al. 1999; cited from earlier work.
The conditions of data set [6]: at 25° C., gas/water, cited from earlier work.
The conditions of data set [7]: for every 10° C. increase in temperature; cited from earlier work.

The structures appear in SMILES notation. Read-outs that look alike come from different tables or passages of the source. Marks after values point to notes of the source that are not given here.

Consider `FCF` [Difluoromethane], for which the “KH (dimensionless Henry's law constant)” value in data set [1] is given as 0.47^b; in data set [1] (listed as difluoromethane), 0.47±0.07. Further, the “Log n-Octanol/Water Partition Coefficient” value in data set [2] is recorded as 0.21^c. Further, the “KH (Henry's law constant)” value is given as 0.34 in data set [3] (at 4° C.); 0.99 in data set [3] (at 50° C.); 0.57±0.09 in data set [4] (landfill leachate (Cherry Island Landfill), 25.5-26.0° C., three trials, ± 95% confidence interval); 0.59 in data set [5]. Moreover, the “Increase of KH in leachate relative to distilled water” value in data set [4] (leachate vs distilled water, mean temperature about 2.5° C. higher) was 20%.

On to `[He]` [Helium], for which the “KH (dimensionless Henry's law constant)” value in data set [6] is 106^a; in data set [6] (listed as helium), “≈ 100”.

Consider `CF` [fluoromethane], for which, in data set [7], the “Increase in KH with temperature” value is “approximately 20%”.

(Values after US20070056361A1, “Partitioning gas tracer tests” (UNIVERSITY OF DELAWARE office of the Vice Provost for …, priority 2003, published 2007).)
